Experimental data: the kinase profiling compilation of Christmann-Franck et al. (2016)

Assays:
Experiment in all cases: radiometric filter-binding kinase assay, Kinaseprofiler
ULK2 (human) = ULK2 (human) (UniProt Q8IYT8); conditions: ATP 15 µM
MAP2K1 (human) = MAP2K1 (human) (UniProt Q02750); conditions: ATP 10 µM
PRKD2 (human) = PRKD2 (human) (UniProt Q9BZL6); conditions: ATP 155 µM
CSNK1D (rat) = conditions: accession and sequence are those of the human protein
PAK4 (human) = PAK4 (human) (UniProt O96013); conditions: ATP 10 µM
PRKCB2 (human) = PRKCB2 (human) (UniProt P05771); conditions: ATP 10 µM
RPS6KA3 KD1 KD2 (human) = RPS6KA3 KD1 KD2 (human) (UniProt P51812); conditions: ATP 10 µM
CDK2 CCNE1 (human) = CDK2 CCNE1 (human) (UniProt P24941+P24864); conditions: ATP 120 µM
MELK (human) = MELK (human) (UniProt Q14680); conditions: ATP 45 µM
MAPK3 (human) = MAPK3 (human) (UniProt P27361); conditions: ATP 70 µM
MAPK11 (human) = MAPK11 (human) (UniProt Q15759); conditions: ATP 45 µM
MAP3K9 (human) = MAP3K9 (human) (UniProt P80192); conditions: ATP 45 µM
ACVR1B (human) = ACVR1B (human) (UniProt P36896); conditions: ATP 10 µM
CDC42BPB (human) = CDC42BPB (human) (UniProt Q9Y5S2); conditions: ATP 10 µM
CHEK1 (human) = CHEK1 (human) (UniProt O14757); conditions: ATP 90 µM
[1] = molecular target: CSNK2A1 CSNK2B CSNK2A2 (human) (UniProt P19784+P68400+P67870); conditions: ATP 15 µM
CSNK1G1 (human) = CSNK1G1 (human) (UniProt Q9HCP0); conditions: ATP 15 µM
PRKCG (human) = PRKCG (human) (UniProt P05129); conditions: ATP 15 µM
GCK (human) = GCK (human) (UniProt Q12851); conditions: ATP 200 µM
MAPK13 (human) = MAPK13 (human) (UniProt O15264); conditions: ATP 15 µM
YES1 (human) = YES1 (human) (UniProt P07947); conditions: ATP 45 µM
CDK3 CCNE1 (human) = CDK3 CCNE1 (human) (UniProt Q00526+P24864); conditions: ATP 200 µM
CSF1R (human) = CSF1R (human) (UniProt P07333); conditions: ATP 200 µM
PRKCI (human) = PRKCI (human) (UniProt P41743); conditions: ATP 155 µM
MAP3K5 (human) = MAP3K5 (human) (UniProt Q99683); conditions: ATP 200 µM
NUAK1 (human) = NUAK1 (human) (UniProt O60285); conditions: ATP 45 µM
AURKB (human) = AURKB (human) (UniProt Q96GD4); conditions: ATP 10 µM
EPHA1 (human) = EPHA1 (human) (UniProt P21709); conditions: ATP 45 µM
CSNK2A2 (human) = CSNK2A2 (human) (UniProt P19784); conditions: ATP 10 µM
MAP2K6 (human) = MAP2K6 (human) (UniProt P52564); conditions: ATP 10 µM
TYRO3 (human) = TYRO3 (human) (UniProt Q06418); conditions: ATP 45 µM
NTRK2 (human) = NTRK2 (human) (UniProt Q16620); conditions: ATP 90 µM
Chain of NTRK2 (human) (Q16620 whole entry, looked up): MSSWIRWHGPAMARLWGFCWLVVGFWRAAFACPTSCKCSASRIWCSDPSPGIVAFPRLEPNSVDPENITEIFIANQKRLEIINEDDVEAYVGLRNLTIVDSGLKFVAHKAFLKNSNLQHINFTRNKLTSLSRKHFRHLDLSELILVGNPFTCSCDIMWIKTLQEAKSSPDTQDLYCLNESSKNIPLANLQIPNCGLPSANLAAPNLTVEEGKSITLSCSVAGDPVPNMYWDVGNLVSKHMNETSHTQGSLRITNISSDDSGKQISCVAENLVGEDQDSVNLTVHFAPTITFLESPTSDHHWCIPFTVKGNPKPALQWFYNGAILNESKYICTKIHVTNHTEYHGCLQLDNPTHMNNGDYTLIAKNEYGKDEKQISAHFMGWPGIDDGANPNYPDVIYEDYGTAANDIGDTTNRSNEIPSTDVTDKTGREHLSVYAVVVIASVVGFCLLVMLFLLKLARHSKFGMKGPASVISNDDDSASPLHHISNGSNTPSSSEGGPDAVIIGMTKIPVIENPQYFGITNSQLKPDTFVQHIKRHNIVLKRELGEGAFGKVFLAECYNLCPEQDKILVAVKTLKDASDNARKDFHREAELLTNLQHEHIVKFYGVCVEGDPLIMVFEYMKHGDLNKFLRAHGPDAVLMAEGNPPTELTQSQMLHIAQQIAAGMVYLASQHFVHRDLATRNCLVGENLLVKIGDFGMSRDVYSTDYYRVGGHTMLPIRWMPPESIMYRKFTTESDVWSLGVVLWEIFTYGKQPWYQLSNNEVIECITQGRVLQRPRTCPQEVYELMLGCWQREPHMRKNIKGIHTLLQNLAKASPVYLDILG

Chain of RPS6KA3 KD1 KD2 (human) (P51812 whole entry, looked up): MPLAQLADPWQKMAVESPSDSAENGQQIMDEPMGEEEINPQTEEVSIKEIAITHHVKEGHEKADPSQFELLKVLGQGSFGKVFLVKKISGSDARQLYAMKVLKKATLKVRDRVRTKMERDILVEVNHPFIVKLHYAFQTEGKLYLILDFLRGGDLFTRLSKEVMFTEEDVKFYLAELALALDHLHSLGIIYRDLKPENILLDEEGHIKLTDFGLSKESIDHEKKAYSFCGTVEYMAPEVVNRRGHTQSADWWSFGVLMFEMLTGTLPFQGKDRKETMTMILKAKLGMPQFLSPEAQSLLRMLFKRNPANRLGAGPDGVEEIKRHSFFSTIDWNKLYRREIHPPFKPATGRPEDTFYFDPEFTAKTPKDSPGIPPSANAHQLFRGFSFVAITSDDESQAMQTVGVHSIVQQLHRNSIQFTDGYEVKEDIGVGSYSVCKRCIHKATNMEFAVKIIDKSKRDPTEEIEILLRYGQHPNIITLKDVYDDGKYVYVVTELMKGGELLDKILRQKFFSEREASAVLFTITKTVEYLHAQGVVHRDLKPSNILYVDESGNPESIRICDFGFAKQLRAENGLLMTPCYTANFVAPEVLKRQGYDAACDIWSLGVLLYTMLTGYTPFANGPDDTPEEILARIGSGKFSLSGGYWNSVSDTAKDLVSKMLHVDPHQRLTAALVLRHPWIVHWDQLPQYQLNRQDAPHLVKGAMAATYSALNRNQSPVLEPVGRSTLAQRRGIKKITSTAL
Chain of PRKCI (human) (P41743 whole entry, looked up): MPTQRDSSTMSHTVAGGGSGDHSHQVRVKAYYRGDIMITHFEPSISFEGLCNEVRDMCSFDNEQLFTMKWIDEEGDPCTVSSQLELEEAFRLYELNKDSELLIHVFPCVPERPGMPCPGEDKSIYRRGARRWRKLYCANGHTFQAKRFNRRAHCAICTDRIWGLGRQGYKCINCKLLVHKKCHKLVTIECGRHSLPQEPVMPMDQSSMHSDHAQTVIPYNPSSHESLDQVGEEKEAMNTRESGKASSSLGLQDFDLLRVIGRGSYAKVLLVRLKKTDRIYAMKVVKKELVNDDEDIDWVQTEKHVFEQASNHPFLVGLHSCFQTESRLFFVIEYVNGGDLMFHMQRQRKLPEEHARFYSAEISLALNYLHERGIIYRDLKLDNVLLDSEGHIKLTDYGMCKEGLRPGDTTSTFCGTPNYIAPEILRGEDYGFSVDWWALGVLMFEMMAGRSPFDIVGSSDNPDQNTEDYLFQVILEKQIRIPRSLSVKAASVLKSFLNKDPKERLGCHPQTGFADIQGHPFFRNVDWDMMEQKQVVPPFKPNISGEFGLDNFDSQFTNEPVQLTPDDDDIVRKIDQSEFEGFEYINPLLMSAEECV
Chain of CDK3 CCNE1 (human) (P24864 whole entry, looked up): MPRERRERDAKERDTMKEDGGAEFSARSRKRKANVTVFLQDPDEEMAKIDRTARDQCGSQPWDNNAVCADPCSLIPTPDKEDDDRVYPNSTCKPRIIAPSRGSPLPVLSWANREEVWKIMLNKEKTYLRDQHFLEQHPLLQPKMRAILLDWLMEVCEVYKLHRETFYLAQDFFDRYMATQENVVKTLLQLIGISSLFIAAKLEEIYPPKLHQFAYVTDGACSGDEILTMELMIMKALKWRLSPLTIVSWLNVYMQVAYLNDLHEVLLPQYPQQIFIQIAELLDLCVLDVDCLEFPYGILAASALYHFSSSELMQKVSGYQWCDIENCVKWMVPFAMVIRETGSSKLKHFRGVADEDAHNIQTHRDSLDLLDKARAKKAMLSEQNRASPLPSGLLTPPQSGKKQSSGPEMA
Chain of CDK3 CCNE1 (human) (Q00526 whole entry, looked up): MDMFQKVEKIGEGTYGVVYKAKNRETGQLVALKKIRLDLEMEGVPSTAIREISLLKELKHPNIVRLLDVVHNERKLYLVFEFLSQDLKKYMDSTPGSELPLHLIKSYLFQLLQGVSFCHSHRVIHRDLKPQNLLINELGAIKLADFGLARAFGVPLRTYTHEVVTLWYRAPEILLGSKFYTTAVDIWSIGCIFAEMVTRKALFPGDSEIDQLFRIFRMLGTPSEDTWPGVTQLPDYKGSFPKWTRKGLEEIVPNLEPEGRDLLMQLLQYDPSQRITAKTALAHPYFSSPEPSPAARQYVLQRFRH
Chain of CDK2 CCNE1 (human) (P24864 whole entry, looked up, other chains not shown): as the sequence (P24864 whole entry, looked up) above
Chain of PAK4 (human) (O96013 whole entry, looked up): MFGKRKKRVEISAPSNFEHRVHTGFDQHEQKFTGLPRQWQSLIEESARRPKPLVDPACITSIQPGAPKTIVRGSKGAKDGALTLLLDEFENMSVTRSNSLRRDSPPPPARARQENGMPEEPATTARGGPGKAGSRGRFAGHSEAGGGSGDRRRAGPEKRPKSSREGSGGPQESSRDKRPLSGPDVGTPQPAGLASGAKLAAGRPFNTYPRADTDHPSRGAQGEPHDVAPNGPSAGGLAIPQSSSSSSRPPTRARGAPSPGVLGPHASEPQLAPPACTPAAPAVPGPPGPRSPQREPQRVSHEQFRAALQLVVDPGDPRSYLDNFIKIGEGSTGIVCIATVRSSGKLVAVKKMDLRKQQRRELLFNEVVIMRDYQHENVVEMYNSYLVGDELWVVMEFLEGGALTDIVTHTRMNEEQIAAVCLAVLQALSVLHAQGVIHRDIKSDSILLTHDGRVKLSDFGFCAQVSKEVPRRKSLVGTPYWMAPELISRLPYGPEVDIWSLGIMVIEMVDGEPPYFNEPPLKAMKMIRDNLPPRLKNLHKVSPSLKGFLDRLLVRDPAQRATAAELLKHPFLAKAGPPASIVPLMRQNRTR
Chain of PRKCB2 (human) (P05771 whole entry, looked up): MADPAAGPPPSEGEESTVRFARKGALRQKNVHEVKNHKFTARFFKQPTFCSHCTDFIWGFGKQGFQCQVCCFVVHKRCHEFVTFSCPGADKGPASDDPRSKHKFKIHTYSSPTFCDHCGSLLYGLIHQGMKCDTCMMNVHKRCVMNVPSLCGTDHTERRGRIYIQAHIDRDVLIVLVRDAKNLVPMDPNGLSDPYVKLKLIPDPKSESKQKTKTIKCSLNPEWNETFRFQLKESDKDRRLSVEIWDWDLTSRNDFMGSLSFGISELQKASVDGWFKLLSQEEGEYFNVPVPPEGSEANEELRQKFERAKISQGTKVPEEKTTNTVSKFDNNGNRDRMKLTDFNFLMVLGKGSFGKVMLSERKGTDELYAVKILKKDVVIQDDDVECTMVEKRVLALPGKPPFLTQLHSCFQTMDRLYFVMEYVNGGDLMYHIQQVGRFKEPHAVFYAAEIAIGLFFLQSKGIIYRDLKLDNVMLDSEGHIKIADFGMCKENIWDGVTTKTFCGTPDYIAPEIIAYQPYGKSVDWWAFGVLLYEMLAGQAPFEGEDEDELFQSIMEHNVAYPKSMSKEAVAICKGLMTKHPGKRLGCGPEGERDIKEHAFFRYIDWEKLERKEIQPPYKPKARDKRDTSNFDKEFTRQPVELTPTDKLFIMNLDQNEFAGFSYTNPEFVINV

O=C1c2ccccc2-c2n[nH]c3cccc1c23
residual activity (ULK2 (human); compound 1.0 µM): 90%
residual activity (ULK2 (human); compound 10.0 µM): 45%
residual activity (MAP2K1 (human); compound 1.0 µM): 75%
residual activity (MAP2K1 (human); compound 10.0 µM): 50%
residual activity (PRKD2 (human); compound 1.0 µM): 92%
residual activity (PRKD2 (human); compound 10.0 µM): 36%
residual activity (CSNK1D (rat); compound 1.0 µM): 5%
residual activity (CSNK1D (rat); compound 10.0 µM): 1%
residual activity (PAK4 (human); compound 1.0 µM): 88%
residual activity (PAK4 (human); compound 10.0 µM): 45%
residual activity (PRKCB2 (human); compound 1.0 µM): 108%
residual activity (PRKCB2 (human); compound 10.0 µM): 102%
residual activity (RPS6KA3 KD1 KD2 (human); compound 1.0 µM): 54%
residual activity (RPS6KA3 KD1 KD2 (human); compound 10.0 µM): 32%
residual activity (CDK2 CCNE1 (human); compound 1.0 µM): 8%
residual activity (CDK2 CCNE1 (human); compound 10.0 µM): 3%
residual activity (MELK (human); compound 1.0 µM): 13%
residual activity (MELK (human); compound 10.0 µM): 0%
residual activity (MAPK3 (human); compound 1.0 µM): 59%
residual activity (MAPK3 (human); compound 10.0 µM): 72%
residual activity (MAPK11 (human); compound 1.0 µM): 88%
residual activity (MAPK11 (human); compound 10.0 µM): 79%
residual activity (MAP3K9 (human); compound 1.0 µM): 13%
residual activity (MAP3K9 (human); compound 10.0 µM): 4%
residual activity (ACVR1B (human); compound 1.0 µM): 86%
residual activity (ACVR1B (human); compound 10.0 µM): 84%
residual activity (CDC42BPB (human); compound 1.0 µM): 90%
residual activity (CDC42BPB (human); compound 10.0 µM): 95%
residual activity (CHEK1 (human); compound 1.0 µM): 72%
residual activity (CHEK1 (human); compound 10.0 µM): 32%
residual activity ([1]; compound 1.0 µM): 60%
residual activity ([1]; compound 10.0 µM): 19%
residual activity (CSNK1G1 (human); compound 1.0 µM): 99%
residual activity (CSNK1G1 (human); compound 10.0 µM): 48%
residual activity (PRKCG (human); compound 1.0 µM): 73%
residual activity (PRKCG (human); compound 10.0 µM): 30%
residual activity (GCK (human); compound 1.0 µM): 16%
residual activity (GCK (human); compound 10.0 µM): 2%
residual activity (MAPK13 (human); compound 1.0 µM): 96%
residual activity (MAPK13 (human); compound 10.0 µM): 73%
residual activity (YES1 (human); compound 1.0 µM): 98%
residual activity (YES1 (human); compound 10.0 µM): 51%
residual activity (CDK3 CCNE1 (human); compound 1.0 µM): 26%
residual activity (CDK3 CCNE1 (human); compound 10.0 µM): 14%
residual activity (CSF1R (human); compound 1.0 µM): 36%
residual activity (CSF1R (human); compound 10.0 µM): 9%
residual activity (PRKCI (human); compound 1.0 µM): 117%
residual activity (PRKCI (human); compound 10.0 µM): 107%
residual activity (MAP3K5 (human); compound 1.0 µM): 36%
residual activity (MAP3K5 (human); compound 10.0 µM): 5%
residual activity (NUAK1 (human); compound 1.0 µM): 28%
residual activity (NUAK1 (human); compound 10.0 µM): 17%
residual activity (AURKB (human); compound 1.0 µM): 1%
residual activity (AURKB (human); compound 10.0 µM): 0%
residual activity (EPHA1 (human); compound 1.0 µM): 67%
residual activity (EPHA1 (human); compound 10.0 µM): 42%
residual activity (CSNK2A2 (human); compound 1.0 µM): 59%
residual activity (CSNK2A2 (human); compound 10.0 µM): 18%
residual activity (MAP2K6 (human); compound 1.0 µM): 82%
residual activity (MAP2K6 (human); compound 10.0 µM): 13%
residual activity (TYRO3 (human); compound 1.0 µM): 97%
residual activity (TYRO3 (human); compound 10.0 µM): 81%
residual activity (NTRK2 (human); compound 1.0 µM): 32%
residual activity (NTRK2 (human); compound 10.0 µM): 5%
